Usually IC50 stands for the concentration at which inhibition is half-maximal. As usually defined, the Emax is the maximal effect, on the per cent scale that the assay sets.

Consider 41 compounds from patent US10464925B2, “Methods to induce targeted protein degradation through bifunctional molecules” (Dana-Farber Cancer Institute, Inc., priority 2015, dated 2019).

Assay [1] concerns IKZF1 adjoined to nanoluciferase (Nluc). The experiment in a line: IKZF1 Dual Luciferase Assay. Type of assay: cell-based. Further details: Nluc/Fluc IKZF1 Max Degradation: unit: %. Conditions: 293 FT cells, 4 hours; for pIC50: read-out: Nluc/Fluc IKZF1 IC50.
The target in another assay is T1, CRBN-DDB1 (Homo sapiens, UniProt Q96SW2).
T1 construct: 6xHis (given for the complex); made in house; host or cells: Sf9 cells (Invitrogen), pFastBac
The experiment in a line: CRBN-DDB1 Ligand-Displacement AlphaScreen Assay (thalidomide competition).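 Note: streptavidin donor and nickel chelate acceptor bead proximity signal after 30 min incubation, normalized with no-protein background as 0% and DMSO wells as 100% activity.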 Type of assay: binding. Conditions: read-out: CRBN alpha IC50. On the technique in general: In Alpha technology, singlet oxygen from a donor bead excites a nearby acceptor bead.

The subject of another assay is 797. In words: Cell viability, 797 cells (Table 4). Particulars: read-out: IC50 (nM) 797. The assay is classed as cell-based.
Assay [2] concerns the target T2, BRD4 adjoined to nanoluciferase (Nluc) (Homo sapiens, UniProt O60885+Q96SW2).
T2 construct: expressed in transfected cells
The experiment in a line: BRD4 Dual Luciferase Assay.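 For all read-outs here: transduced reporter cells exposed to compound for 4 h, then Nluc and Fluc luminescence read, each normalized to DMSO controls and expressed as Nluc/Fluc ratio per well.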 The assay is classed as cell-based. Particulars: for Emax: BRD4 remaining at Emax, read-out: BRD4− Emax (percent remaining).

[3] abbreviates: 4 hours, read-out: max degradation (dual luc).
The mark [4] stands for this setting: read-out: BRD4 max degradation(%) Dual Luciferase.

pIC50: −log10 of the molar value. Where two headings read alike, the source gives them in different places.

Turning to `O=C1CCC(N2C(=O)c3cccc(O)c3C2=O)C(=O)N1` [Compound D-1, 2-(2,6-dioxopiperidin-3-yl)-4-hydroxyisoindoline-1,3-dione], the pIC50 in assay [1] was below 4.30. For the compound `O=C1CCC(N2C(=O)c3ccc([N+](=O)[O-])cc3C2=O)C(=O)N1` [Compound D-2, 2-(2,6-dioxopiperidin-3-yl)-5-nitroisoindoline-1,3-dione], the pIC50 in assay [1] is below 4.30; at CRBN-DDB1, 5.38. In the case of `CC(=O)Nc1cccc2c1C(=O)N(C1CCC(=O)NC1=O)C2=O` [Compound D-3, N-(2-(2,6-dioxopiperidin-3-yl)-1,3-dioxoisoindolin-4-yl)acetamide], the “Nluc/Fluc IKZF1 Max Degradation” value in assay [1] is on record as 38.24. Moreover, the pIC50 at CRBN-DDB1 is 6.18. With `Nc1cccc2c1C(=O)N(C1CCC(=O)NC1=O)C2=O` [Compound D-4, 4-amino-2-(2,6-dioxopiperidin-3-yl)isoindoline-1,3-dione], the “Nluc/Fluc IKZF1 Max Degradation” value in assay [1] is reported as 66.43.

As to `O=C1CCC(N2C(=O)c3ccc(C(=O)O)cc3C2=O)C(=O)N1` [Compound D-13, 2-(2,6-dioxopiperidin-3-yl)-1,3-dioxoisoindoline-5-carboxylic acid], in assay [1], the pIC50 is below 4.30. Regarding `Cc1nc2cccc(N)c2c(=O)n1C1CCC(=O)NC1=O` [Compound D-17, 3-(5-amino-2-methyl-4-oxoquinazolin-3(4H)-yl)piperidine-2,6-dione], the “Nluc/Fluc IKZF1 Max Degradation” value in assay [1] turned out to be 67.59. On to `O=C1CCC(N2C(=O)c3ccc(NCc4ccco4)cc3C2=O)C(=O)N1` [Compound D-28, 2-(2,6-dioxopiperidin-3-yl)-5-((furan-2-ylmethyl)amino)isoindoline-1,3-dione], for which the pIC50 at CRBN-DDB1 was 7.40. With `CC(C)(C)OC(=O)NCCNc1cccc2c1C(=O)N(C1CCC(=O)NC1=O)C2=O` [Compound D-29, tert-butyl (2-((2-(2,6-dioxopiperidin-3-yl)-1,3-dioxoisoindolin-4-yl)amino)ethyl)carbamate], the pIC50 at CRBN-DDB1 was 6.85. The same measure, in the same setting: next, `O=C1CCC(N2C(=O)c3ccc(NC(=O)CCl)cc3C2=O)C(=O)N1` [Compound D-32, 2-chloro-N-(2-(2,6-dioxopiperidin-3-yl)-1,3-dioxoisoindolin-5-yl)acetamide]: 7.67. On the same count and under the same terms, next, `O=C1CCC(N2C(=O)c3c(Cl)ccc(Cl)c3C2=O)C(=O)N1` [Compound D-51, 4,7-dichloro-2-(2,6-dioxopiperidin-3-yl)isoindoline-1,3-dione]: 5.93; `C[C@@]1(N2C(=O)c3cccc(O)c3C2=O)CCC(=O)NC1=O` [Compound D-52, (R)-4-hydroxy-2-(3-methyl-2,6-dioxopiperidin-3-yl)isoindoline-1,3-dione]: 4.40. Same read-out and setting: next, `C[C@]1(N2C(=O)c3cccc(O)c3C2=O)CCC(=O)NC1=O` [Compound D-53, (S)-4-hydroxy-2-(3-methyl-2,6-dioxopiperidin-3-yl)isoindoline-1,3-dione]: 4.25. `C[C@@]1(N2C(=O)c3cccc(OCC(=O)O)c3C2=O)CCC(=O)NC1=O` [Compound D-54, (R)-2-((2-(3-methyl-2,6-dioxopiperidin-3-yl)-1,3-dioxoisoindolin-4-yl)oxy)acetic acid]: the pIC50 at CRBN-DDB1 was below 4.30. Same read-out and setting: as for `C[C@]1(N2C(=O)c3cccc(OCC(=O)O)c3C2=O)CCC(=O)NC1=O` [Compound D-55, (S)-2-((2-(3-methyl-2,6-dioxopiperidin-3-yl)-1,3-dioxoisoindolin-4-yl)oxy)acetic acid], the figure is below 4.30. Still for that read-out and setting: as for `O=C1CCC(N2C(=O)c3cccc([N+](=O)[O-])c3C2=O)C(=O)N1` [Compound D-56], the figure is 5.51.

On to `O=C1CCC(N2C(=O)c3ccc(Br)cc3C2=O)C(=O)N1` [Compound D-58], for which the pIC50 at CRBN-DDB1 was 6.15.

In the case of `CCOc1cccc2c1C(=O)N(C1CCC(=O)N(CC)C1=O)C2=O` [Compound D-59], on CRBN-DDB1, the pIC50 was below 4.30.

As to `CCOc1cccc2c1C(=O)N(C1CCC(=O)NC1=O)C2=O` [Compound D-60], on CRBN-DDB1, the pIC50 was 6.59. On the same count and under the same terms, next, `O=C1CCC(N2C(=O)c3ccc([N+](=O)[O-])cc3C2=O)C(=O)N1` [Compound D-61]: 5.58; `O=C(O)COc1cccc2c1C(=O)N(C1CCC(=O)NC1=O)C2=O` [Compound D-64]: 5.67; `COC(=O)COc1cccc2c1C(=O)N(C1CCC(=O)NC1=O)C2=O` [Compound D-65]: 5.95.

Regarding `COc1cc(C(=O)NCCCCNC(=O)COc2cccc3c2C(=O)N(C2CCC(=O)NC2=O)C3=O)ccc1Nc1ccc2c(n1)N(C1CCCC1)[C@H](C)C(=O)N2C` (stereo partly shown) [dBET16], the IC50 in the assay on 797 was 4900 nM. For `Cc1cnc(Nc2ccc(N3CCN(C(=O)CCCNC(=O)COc4cccc5c4C(=O)N(C4CCC(=O)NC4=O)C5=O)CC3)cc2)nc1Nc1cccc(S(=O)(=O)NC(C)(C)C)c1` (stereo not shown) [dBET20], the Dmax in assay [2] (setting [3]) is 7.04%; in assay [2] (setting [4]), below 10%. In addition, in the assay with 797, the IC50 worked out at 14700 nM. Regarding `Cc1sc2c(c1C)C(c1ccc(Cl)cc1)=N[C@@H](CC(=O)NCCCCCCCCOc1cccc3c1C(=O)N(C1CCC(=O)NC1=O)C3=O)c1nnc(C)n1-2` (stereo partly shown) [dBET21], the Emax in assay [2] was determined as 78.1%. Also, the Dmax in assay [2] (setting [4]) amounted to 21%. In addition, the IC50 with 797 amounted to 630 nM. With `Cc1sc2c(c1C)C(c1ccc(Cl)cc1)=N[C@@H](CC(=O)NCCOCCOCCNC(=O)COc1cccc3c1C(=O)N(C1CCC(=O)NC1=O)C3=O)c1nnc(C)n1-2` (stereo partly shown) [dBET24], in assay [2], the “Conc@Emax” value is 5 µM and the maximal response (Emax) was found to be 43%. Also, the Dmax in assay [2] (setting [3]) was found to be 50.4%. Also, the Dmax in assay [2] (setting [4]) worked out at 50%. For `COC(=O)C[C@@H]1N=C(c2ccc(Cl)cc2)c2c(sc(C)c2C(=O)NCCCCNC(=O)COc2cccc3c2C(=O)N(C2CCC(=O)NC2=O)C3=O)-n2c(C)nnc21` (stereo partly shown) [dBET25], the Dmax in assay [2] (setting [3]) was 41.7%; in assay [2] (setting [4]), 42%. Further, in the assay with 797, the IC50 came out at 6860 nM. As to `COC(=O)C[C@@H]1N=C(c2ccc(Cl)cc2)c2c(sc(C)c2C(=O)NCCCCCCCCNC(=O)COc2cccc3c2C(=O)N(C2CCC(=O)NC2=O)C3=O)-n2c(C)nnc21` (stereo partly shown) [dBET26], the values for the Dmax in assay [2] (setting [3]) and in assay [2] (setting [4]) were 39.9% and 40%, respectively. Further, the IC50 with 797 was 7020 nM. For `Cc1sc2c(c1C)C(c1ccc(Cl)cc1)=N[C@@H](CC(=O)NCCOCCOc1cccc3c1C(=O)N(C1CCC(=O)NC1=O)C3=O)c1nnc(C)n1-2` (stereo partly shown) [dBET27], in assay [2], the “Conc@Emax” value was 0.5 µM. The Dmax in assay [2] (setting [3]) and in assay [2] (setting [4]) was 30% throughout. Also, in assay [2], the Emax was found to be 67.3%.

For `Cc1sc2c(c1C)C(c1ccc(Cl)cc1)=N[C@@H](CC(=O)NCCCCCCOc1cccc3c1C(=O)N(C1CCC(=O)NC1=O)C3=O)c1nnc(C)n1-2` (stereo partly shown) [dBET29], the “Conc@Emax” value in assay [2] was 0.05 µM. Also, the Dmax in assay [2] (setting [3]) and in assay [2] (setting [4]) was 19% each time. Moreover, the Emax in assay [2] worked out at 75.5%. In the case of `Cc1c(C(=O)NCCCCCCCCNC(=O)COc2cccc3c2C(=O)N(C2CCC(=O)NC2=O)C3=O)sc2c1C(c1ccc(Cl)cc1)=N[C@@H](CC(=O)NCCCN1CCN(C)CC1)c1nnc(C)n1-2` (stereo partly shown) [dBET31], the Emax in assay [2] was found to be 45.6%. `Cc1sc2c(c1C)C(c1ccc(Cl)cc1)=N[C@@H](CC(=O)NCCCCNC(=O)CNc1cccc3c1CN(C1CCC(=O)NC1=O)C3=O)c1nnc(C)n1-2` (stereo partly shown) [dBET35]: the Dmax in assay [2] (setting [3]) worked out at 11.7%; in assay [2] (setting [4]), 12%. Further, in the assay with 797, the IC50 turned out to be 372 nM. For the compound `Cc1sc2c(c1C)C(c1ccc(Cl)cc1)=N[C@@H](CC(=O)NCCCCNC(=O)Cc1cccc3c1C(=O)N(C1CCC(=O)NC1=O)C3=O)c1nnc(C)n1-2` (stereo partly shown) [dBET36], the half-maximal inhibitory concentration (IC50) with 797 was determined as 725 nM.

Consider `Cc1sc2c(c1C)C(c1ccc(Cl)cc1)=N[C@@H](CC(=O)NCCCCCC(=O)NCc1cccc3c1C(=O)N(C1CCC(=O)NC1=O)C3=O)c1nnc(C)n1-2` (stereo partly shown) [dBET37], for which the Dmax in assay [2] (setting [3]) worked out at 46.4%; in assay [2] (setting [4]), 46%. Moreover, in the assay with 797, the half-inhibitory concentration (IC50) was determined as 1020 nM.

Turning to `Cc1sc2c(c1C)C(c1ccc(Cl)cc1)=N[C@@H](CC(=O)NCCCOCCCNC(=O)COc1cccc3c1C(=O)N(C1CCC(=O)NC1=O)C3=O)c1nnc(C)n1-2` (stereo partly shown) [dBET38], the IC50 with 797 stood at 770 nM. For `Cc1sc2c(c1C)C(c1ccc(Cl)cc1)=N[C@@H](CC(=O)NCCOCCOCCOc1cccc3c1C(=O)N(C1CCC(=O)NC1=O)C3=O)c1nnc(C)n1-2` (stereo partly shown) [dBET40], in assay [2] (setting [4]), the Dmax was below 10%. In the assay with 797, the IC50 was found to be 299 nM. Regarding `Cc1sc2c(c1C)C(c1ccc(Cl)cc1)=N[C@@H](CC(=O)NCc1ccc(CNC(=O)COc3cccc4c3C(=O)N(C3CCC(=O)NC3=O)C4=O)cc1)c1nnc(C)n1-2` (stereo partly shown) [dBET41], the IC50 in the assay on 797 amounted to 726 nM. As for `Cc1sc2c(c1C)C(c1ccc(Cl)cc1)=N[C@@H](CC(=O)NCCCCC(=O)Nc1cccc3c1CN(C1CCC(=O)NC1=O)C3=O)c1nnc(C)n1-2` (stereo partly shown) [dBET42], the Dmax in assay [2] (setting [3]) and in assay [2] (setting [4]) was 10% each time. The IC50 in the assay on 797 amounted to 7720 nM. On to `Cc1sc2c(c1C)C(c1ccc(Cl)cc1)=N[C@@H](CC(=O)NCCCCCCC(=O)Nc1cccc3c1CN(C1CCC(=O)NC1=O)C3=O)c1nnc(C)n1-2` (stereo partly shown) [dBET43], for which the Dmax in assay [2] (setting [3]) and in assay [2] (setting [4]) was 13% throughout. In addition, in the assay on 797, the IC50 was determined as 2250 nM. Turning to `Cc1sc2c(c1C)C(c1ccc(Cl)cc1)=N[C@@H](CC(=O)NCCCCCCCC(=O)Nc1cccc3c1CN(C1CCC(=O)NC1=O)C3=O)c1nnc(C)n1-2` (stereo partly shown) [dBET44], in assay [2] (setting [4]), the Dmax is below 10%. Besides, the IC50 with 797 was found to be 719 nM.

In the case of `COc1cc(C(=O)NCCCCCCCCNC(=O)COc2cccc3c2C(=O)N(C2CCC(=O)NC2=O)C3=O)ccc1Nc1ccc2c(n1)N(C1CCCC1)[C@H](C)C(=O)N2C` (stereo partly shown) [dBET45], the half-inhibitory concentration (IC50) in the assay with 797 turned out to be 3450 nM.

Turning to `COc1cc(C(=O)NCCCOCCOCCOCCCNC(=O)COc2cccc3c2C(=O)N(C2CCC(=O)NC2=O)C3=O)ccc1Nc1ccc2c(n1)N(C1CCCC1)[C@H](C)C(=O)N2C` (stereo partly shown) [dBET46], the half-maximal inhibitory concentration (IC50) in the assay on 797 worked out at 9450 nM.
